# From patent US6875771B2, “Pyridopyrimidine derivatives as 5-HT6 antagonists” (Bristol-Myers Squibb Company, priority 2002, dated 2005)
# Target: T1, human 5-HT6 receptor (Homo sapiens, UniProt P50406)
# T1 construct: expressed in transfected cells
# Assay: Radioligand binding at the 5-HT6 receptor (3H-LSD displacement)
# Settings: inhibition of 3H-LSD (1.6 nM) binding; membranes of cell line stably expressing human 5-HT6 receptor; 60 minutes at 37° C.
# Protocol: Radioligand Binding at the 5-HT6 Receptor
# Compounds of the present invention were evaluated using a cell line that stably expresses the human 5-HT6 receptor. Membranes prepared from the cell line were incubated with 3H-LSD (1.6 nM) in the presence of increasing concentrations (10^−10 to 10^−6 M) of test compounds for 60 minutes at 37° C. The reaction was terminated by vacuum filtration of the membranes and washing of the filters with assay buffer. Radioactivity retained on the filters was determined using liquid scintillation spectrometry. The potency of the test compound to inhibit 3H-LSD binding to the 5-HT6 receptor was defined as the concentration of compound required to inhibit 50% (IC50) of radioligand binding as determined by computer assisted analysis of the data. Clozapine was used as an internal standard for comparison.
# T1 sequence (P50406 whole entry): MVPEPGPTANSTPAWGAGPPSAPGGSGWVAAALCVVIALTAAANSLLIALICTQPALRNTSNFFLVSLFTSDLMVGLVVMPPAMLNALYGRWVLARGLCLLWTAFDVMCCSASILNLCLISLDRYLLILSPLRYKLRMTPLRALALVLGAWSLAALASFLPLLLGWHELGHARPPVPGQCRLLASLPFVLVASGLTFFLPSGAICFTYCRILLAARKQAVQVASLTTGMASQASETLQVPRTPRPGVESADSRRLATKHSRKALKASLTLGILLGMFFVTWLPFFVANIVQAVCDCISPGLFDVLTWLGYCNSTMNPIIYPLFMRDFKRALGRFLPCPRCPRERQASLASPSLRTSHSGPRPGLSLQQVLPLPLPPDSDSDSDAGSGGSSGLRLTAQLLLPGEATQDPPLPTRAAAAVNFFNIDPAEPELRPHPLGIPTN
row,SMILES,IC50
1,"CSc1nc2ccccn2c(=O)c1S(=O)(=O)c1ccccc1 [Example 35, 3-Benzenesulfonyl-2-methylsulfanyl-pyrido[1,2-a]pyrimidin-4-one]",0.05 to 0.1 µM
2,CNc1nc2ccccn2c(=N)c1S(=O)(=O)c1ccccc1 [Example 26],< 0.02 µM
3,"CSc1nc2ccccn2c(=N)c1S(=O)(=O)c1ccc(OC(F)(F)F)cc1 [Example 9, 3-(4-Trifluoromethoxy-benzenesulfonyl)-2-methylsulfanyl-pyrido[1,2-a]pyrimidin-4-ylideneamine]",0.1 to 1 µM
4,"COc1nc2ccccn2c(=N)c1S(=O)(=O)c1ccccc1 [Example 30, 3-Benzenesulfonyl-2-methoxy-pyrido[1,2-a]pyrimidin-4-ylideneamine]",< 0.02 µM
5,"CSc1nc2c(C)cc(Br)cn2c(=N)c1S(=O)(=O)c1ccccc1 [Example 16, 3-Benzenesulfonyl-7-bromo-9-methyl-2-methylsulfanyl-pyrido[1,2-a]pyrimidin-4-ylideneamine]",< 0.02 µM
6,"CSc1nc2ccc(C)cn2c(=N)c1S(=O)(=O)c1ccccc1 [Example 14, 3-Benzenesulfonyl-7-methyl-2-methylsulfanyl-pyrido[1,2-a]pyrimidin-4-ylideneamine]",< 0.02 µM
7,"CSc1nc2ccccn2c(=N)c1S(=O)(=O)c1ccc(F)cc1 [Example 5, 3-(4-Fluoro-benzenesulfonyl)-2-methylsulfanyl-pyrido[1,2-a]pyrimidin-4-ylideneamine]",< 0.02 µM
8,"CSc1nc2cc(C)ccn2c(=N)c1S(=O)(=O)c1ccccc1 [Example 11, 3-Benzenesulfonyl-8-methyl-2-methylsulfanyl-pyrido[1,2-a]pyrimidin-4-ylideneamine]",< 0.02 µM
9,"CSc1nc2ccccn2c(=N)c1S(=O)(=O)c1ccc(Cl)cc1 [Example 1, 3-(4-Chloro-benzenesulfonyl)-2-methylsulfanyl-pyrido[1,2-a]pyrimidin-4-ylideneamine]",< 0.02 µM
10,"CCCc1ccn2c(=N)c(S(=O)(=O)c3ccccc3)c(SC)nc2c1 [Example 18, 3-Benzenesulfonyl-2-methylsulfanyl-8-propyl-pyrido[1,2-a]pyrimidin-4-ylideneamine]",0.1 to 1 µM
11,"CSc1nc2c(C)cc(Cc3ccccc3)cn2c(=N)c1S(=O)(=O)c1ccccc1 [Example 20, 3-Benzenesulfonyl-7-benzyl-9-methyl-2-methylsulfanyl-pyrido[1,2-a]pyrimidin-4-ylideneamine]",0.05 to 0.1 µM
12,"CSc1nc2ccc(C(N)=O)cn2c(=N)c1S(=O)(=O)c1ccccc1 [Example 25, 3-Benzenesulfonyl-4-imino-2-methylsulfanyl-4H-pyrido[1,2-a]pyrimidine-7-carboxylic acid amide]",< 0.02 µM
13,"CSc1nc2c3ccccc3ccn2c(=N)c1S(=O)(=O)c1ccccc1 [Example 23, 3-Benzenesulfonyl-2-methylsulfanyl-pyrimido[2,1-a]isoquinolin-4-ylideneamine]",0.05 to 0.1 µM
14,Cc1ccc(Nc2nc3ccc(C)cn3c(=N)c2S(=O)(=O)c2ccccc2)nc1 [Example 28],0.05 to 0.1 µM
15,"C[S+]([O-])c1nc2ccccn2c(=N)c1S(=O)(=O)c1ccccc1 (centres unmarked) [Example 32, 3-Benzenesulfonyl-2-methanesulfinyl-pyrido[1,2-a]pyrimidin-4-ylideneamine]",0.1 to 1 µM
16,"CCc1ccn2c(=N)c(S(=O)(=O)c3ccccc3)c(SC)nc2c1 [Example 17, 3-Benzenesulfonyl-8-ethyl-2-methylsulfanyl-pyrido[1,2-a]pyrimidin-4-ylideneamine]",0.05 to 0.1 µM
17,"N=c1c(S(=O)(=O)c2ccccc2)c(NCCO)nc2ccccn12 [Example 29, 2-(3-Benzenesulfonyl-4-imino-4H-pyrido[1,2-a]pyrimidin-2-ylamino)-ethanol]",< 0.02 µM
18,"CSc1nc2ccccn2c(=N)c1S(=O)(=O)c1cc(C)c(Cl)cc1C [Example 4, 3-(2,5-Dimethyl-4-Chloro-benzenesulfonyl)-2-methylsulfanyl-pyrido[1,2-a]pyrimidin-4-ylideneamine]",< 0.02 µM

# More lines, now with the values ahead:
row,IC50,SMILES
1,< 0.02 µM,"CSc1nc2ccccn2c(=N)c1S(=O)(=O)c1ccc(Cl)c(Cl)c1 [Example 6, 3-(3,4-Dichloro-benzenesulfonyl)-2-methylsulfanyl-pyrido[1,2-a]pyrimidin-4-ylideneamine]"
2,< 0.02 µM,"CSc1nc2ccccn2c(=N)c1S(=O)(=O)c1ccccc1Cl [Example 7, 3-(2-Chloro-benzenesulfonyl)-2-methylsulfanyl-pyrido[1,2-a]pyrimidin-4-ylideneamine]"
3,< 0.02 µM,"CSc1nc2ccc(Cl)cn2c(=N)c1S(=O)(=O)c1ccccc1 [Example 13, 3-Benzenesulfonyl-7-chloro-2-methylsulfanyl-pyrido[1,2-a]pyrimidin-4-ylideneamine]"
4,< 0.02 µM,"CSc1nc2c(C)cccn2c(=N)c1S(=O)(=O)c1ccccc1 [Example 10, 3-Benzenesulfonyl-9-methyl-2-methylsulfanyl-pyrido[1,2-a]pyrimidin-4-ylideneamine]"
5,0.1 to 1 µM,"COC(=O)c1ccc2nc(SC)c(S(=O)(=O)c3ccccc3)c(=N)n2c1 [Example 19, 3-Benzenesulfonyl-4-imino-2-methylsulfanyl-4H-pyrido[1,2-a]pyrimidine-7-carboxylic acid methyl ester]"
6,0.1 to 1 µM,"CSc1nc2c(Br)cc(C)cn2c(=N)c1S(=O)(=O)c1ccccc1 [Example 15, 3-Benzenesulfonyl-9-bromo-7-methyl-2-methylsulfanyl-pyrido[1,2-a]pyrimidin-4-ylideneamine]"
7,0.05 to 0.1 µM,"CSc1nc2ccccn2c(=NC(C)=O)c1S(=O)(=O)c1ccccc1 [Example 34, N-(3-Benzenesulfonyl-2-methylsulfanyl-pyrido[1,2-a]pyrimidin-4-ylidene)-acetamide]"
8,< 0.02 µM,"CSc1nc2ccccn2c(=N)c1S(=O)(=O)c1ccccc1 [Example 2, 3-Benzenesulfonyl-2-methylsulfanyl-pyrido[1,2-a]pyrimidin-4-ylideneamine]"
9,0.05 to 0.1 µM,"CSc1nc2ccccn2c(=N)c1S(=O)(=O)c1ccc2ccccc2c1 [Example 3, 2-Methylsulfanyl-3-(naphthalene-2-sulfonyl)-pyrido[2-a]pyrimidin-4-ylideneamine]"
10,0.05 to 0.1 µM,"CSc1nc2ccccn2c(=N)c1S(=O)(=O)c1ccc(C(C)(C)C)cc1 [Example 8, 3-(4-t-Butyl-benzenesulfonyl)-2-methylsulfanyl-pyrido[1,2-a]pyrimidin-4-ylideneamine]"
11,< 0.02 µM,"CCOc1nc2ccccn2c(=N)c1S(=O)(=O)c1ccccc1 [Example 31, 3-Benzenesulfonyl-2-ethoxy-pyrido[1,2-a]pyrimidin-4-ylideneamine]"
12,< 0.02 µM,"CCNc1nc2ccccn2c(=N)c1S(=O)(=O)c1ccccc1 [Example 27, 3-(Benzenesulfonyl-4-imine-4H-pyrido[1,2-a]pyrimidin-2-yl)-ethyl-amine]"
13,0.1 to 1 µM,"CSc1nc2c(OCc3ccccc3)cccn2c(=N)c1S(=O)(=O)c1ccccc1 [Example 22, 3-Benzenesulfonyl-9-benzyloxy-2-methylsulfanyl-pyrido[1,2-a]pyrimidin-4-ylideneamine]"
14,< 0.02 µM,"CSc1nc2ccc(Br)cn2c(=N)c1S(=O)(=O)c1ccccc1 [Example 12, 3-Benzenesulfonyl-7-bromo-2-methylsulfanyl-pyrido[1,2-a]pyrimidin-4-ylideneamine]"
15,< 0.02 µM,"CSc1nc2ccc(F)cn2c(=N)c1S(=O)(=O)c1ccccc1 [Example 21, 3-Benzenesulfonyl-7-fluoro-2-methylsulfanyl-pyrido[1,2-a]pyrimidin-4-ylideneamine]"
16,0.1 to 1 µM,CN=c1c(S(=O)(=O)c2ccccc2)c(SC)nc2ccccn12 [Example 33]
17,0.05 to 0.1 µM,"CSc1nc2c3ncccc3ccn2c(=N)c1S(=O)(=O)c1ccccc1 [Example 24, 7-Benzenesulfonyl-6-methylsulfanyl-4,5,8a-triaza-phenanthren-8-ylideneamine]"
